The assay deals with R223X stop codon in the mutated luciferase gene, ADXC8 luciferase reporter cell line. Description: cells. The class given is cell-based. The conditions noted are these: ADXC8 cells, 24 hours; for Emax / EC (100% of 200 uM G418 response): 24 h; for Emax: read-out: Fold Over Control, maximum fold response relative to 200 μM G418; for EC (100% of 200 uM G418 response): read-out: pC100%, negative logarithm of the concentration giving the same response as 200 μM G418.

Turning to `Cc1ccc(CN2CCC(Nc3nc(N)c4c(C)cc(C)nc4n3)CC2)c(O)c1` [Example 540], the Emax was 100 to 3000% and the EC (100% of 200 uM G418 response) lay in the range of 1 to 10 µM.

In the case of `Nc1nc(NC23CCN(CC2)CC3)nc2nc(-c3ccccc3)c3c(c12)CCC3` [Example 127, 6-phenyl-N^3-(quinuclidin-4-yl)-8,9-dihydro-7H-cyclopenta[4,5]pyrido[2,3-d]pyrimidine-1,3-diamine], the Emax lay within 100 to 3000% and the EC (100% of 200 uM G418 response) is 0.1 to 1 µM.

For the compound `Cc1cc(C)c2c(N)nc(NC34CNCC3C4)nc2n1` (single isomer, unassigned) [Example 260, N^2-(3-azabicyclo[3.1.0]hexan-1-yl)-5,7-dimethylpyrido[2,3-d]pyrimidine-2,4-diamine], the “Fold Over Control” value (maximum fold response relative to 200 μM G418) was “## (Fold over Ctrl > 1 ≤ 30)”. Where the note is “negative logarithm of the concentration giving the same response as 200 μM G418”, the pC100% result is “+++ (pC100% > 6.0 ≤ 7.0)”.

As to `COc1ccc2c(N)nc(NC3CCN(C)CC3)nc2n1` [Example 17, 7-methoxy-N^2-(1-methylpiperidin-4-yl)pyrido[2,3-d]pyrimidine-2,4-diamine], the Emax was in the range of 100 to 3000% and the EC (100% of 200 uM G418 response) is 10 to 100 µM.

Take `CNc1nc(N[C@H]2CN(C)C[C@H]2O)nc2nc3c(c(C)c12)CCC3` [Example 361]: the Emax fell in the range of 100 to 3000% and the EC (100% of 200 uM G418 response) lay in the range of 1 to 10 µM.

As for `Cc1cc(C)c2c(N)nc(NCCN3CCC4(CCOCC4)C3)nc2n1` [Example 165], the Emax lay within 0 to 100% and the EC (100% of 200 uM G418 response) is greater than 31.6 µM.

With `Cc1cc(-c2ccccc2)nc2nc(N[C@@H]3CCNC3)nc(N)c12` [Example 301], the EC (100% of 200 uM G418 response) was 1 to 10 µM.

`Cc1c(Cl)c(-c2ccccc2)nc2nc(NCCCN3CCOCC3)nc(N)c12` [Example 128, 6-chloro-5-methyl-N2-(3-morpholinopropyl)-7-phenylpyrido[2,3-d]pyrimidine-2,4-diamine]: the EC (100% of 200 uM G418 response) was 1 to 10 µM.

For `CN1CCC(Nc2nc(N)c3ccc(-c4cccc(C(F)(F)F)c4)nc3n2)CC1` [Example 67], the Emax fell in the range of 100 to 3000% and the EC (100% of 200 uM G418 response) is 1 to 10 µM.

As for `CN1CCC(Nc2nc(N)c3cc(Br)cnc3n2)CC1` [Example 20, 6-bromo-N^2-(1-methylpiperidin-4-yl)pyrido[2,3-d]pyrimidine-2,4-diamine], the Emax was in the range of 100 to 3000% and the EC (100% of 200 uM G418 response) was 10 to 100 µM.

On to `CN1CCC(Nc2nc(N)c3ccc(-c4ccncc4)nc3n2)CC1` [Example 111], for which the EC (100% of 200 uM G418 response) lay within 10 to 100 µM.

For `Cc1cc(C)c2c(N)nc(N[C@H]3CCNC[C@@H]3F)nc2n1` [Example 590], the EC (100% of 200 uM G418 response) lay within 1 to 10 µM.

Turning to `CNc1nc(NC2CN(C)CC23CC3)nc2nc(C)cc(C)c12` (stereo not shown) [Example 408], the EC (100% of 200 uM G418 response) was in the range of 1 to 10 µM.

Consider `CNc1nc(N[C@H]2CNC[C@@H](O)C2)nc2nc(C)cc(C)c12` [Example 610], for which the EC (100% of 200 uM G418 response) lay in the range of 1 to 10 µM.

In the case of `Cc1c2c(nc3nc(NC4CCN(Cc5ccc(B(O)O)cc5)CC4)nc(N)c13)CCC2` [Example 668], the Emax lay in the range of 100 to 3000% and the EC (100% of 200 uM G418 response) was 1 to 10 µM.

On to `CN1CCC(Nc2nc(N)c3ccc(-c4cccc(Cl)c4)nc3n2)CC1` [Example 91], for which the EC (100% of 200 uM G418 response) was in the range of 1 to 10 µM.

As for `CNc1nc(N[C@H]2CN(C)C[C@@H]2F)nc2nc(C)cc(C)c12` [Example 339], the Emax is 100 to 3000% and the EC (100% of 200 uM G418 response) is 1 to 10 µM.

In the case of `Cc1cc(C)c2c(N)nc(N[C@H]3CCNCC3(F)F)nc2n1` [Example 220], the Emax lay in the range of 100 to 3000% and the EC (100% of 200 uM G418 response) lay within 1 to 10 µM.

As to `CNc1cc(N[C@H]2CN(C)C[C@H]2OC)nc2nc3c(c(C)c12)CCC3` [Example 424], the Emax is 100 to 3000% and the EC (100% of 200 uM G418 response) lay in the range of 0.1 to 1 µM.

`CNc1nc(N[C@@H]2CN(C)C[C@@H]2O)nc2nc3c(c(C)c12)CCC3` [Example 658]: the Emax is 100 to 3000% and the EC (100% of 200 uM G418 response) was in the range of 1 to 10 µM.

Turning to `CCNc1nc(N[C@@]23CNC[C@@H]2C3)nc2nc(C)cc(C)c12` [Example 419], the EC (100% of 200 uM G418 response) was in the range of 0.1 to 1 µM.

The values above are taken from US20260234144A1 (TAY THERAPEUTICS LIMITED, priority 2023, published 2026).
